Measurements reported in patent US12458630B2, “Combination therapy for cancer” (The Regents of the University of California, priority 2020, dated 2025).
Entries after “also recorded” stand apart in the source; their conditions may differ.

Tests used:
[1] = system: 1444 primary human PDAC cells; assay: TMR-DEX macropinosome uptake assay; format: cell-based; details: IKKα^Δ 1444 cells, 75 μM EIPA
Protocol: (§1) Cell imaging. Immunostaining was performed as described^44. Cells were cultured on coverslips and fixed in 4% PFA for 10 min at room temperature. After washing twice in PBS, cells were incubated in PBS containing 10% FBS to block nonspecific sites of antibody adsorption. The cells were then incubated with the appropriate primary antibodies (diluted 1:100) and secondary antibodies (diluted 1:500) in PBS containing 10% FBS with or without 0.1% saponin. For cell macropinosome visualization, 24 hrs after seeding, the cells were serum starved for 18 hrs. Macropinosomes were marked using a high-molecular-mass (70 KD) TMR-Dextran (Invitrogen)-uptake assay, wherein TMR-DEX was added to serum-free medium at a final concentration of 1 mg/ml for 30 min at 37° C. At the end of the incubation period, the cells were rinsed five times in cold PBS and immediately fixed in 4% PFA. For tissue macropinosome visualization^45, fresh pancreata were cut into pieces with an approximate 5-mm cuboidal shape. […]
(§2) Quantification and statistics. To quantify the number of LC3 puncta, a total of 30 cells were recorded and analyzed using the LAS X measurement program on the TCS SPE Leica. Macropinosomes were quantified by using the ‘Analyze Particles’ feature in ImageJ (National Institutes of Health). […]

KC6141 tumors = assay: s.c. tumors in C57BL/6 mice; format: in vivo, mouse; details: EIPA 7.5 mg/kg, MRT68921 10 mg/kg, 21 days (3 weeks)
Protocol: To evaluate the effects of MP on tumor growth in the autochthonous model, Kras^G12D;Ikkα^Δpan mice, at 4 weeks of age, were treated with vehicle or 10 mg/kg EIPA (Sigma) by intraperitoneal injection every other day for 1 month. After that, surgically removed pancreata were weighed and used for further analysis. To evaluate the effects of MP on heterotopic xenografts, female homozygous BALB/c Nu/Nu nude mice were injected subcutaneously (s.c.) in both flanks at 7 weeks of age with 10^6 parental and IKKα KO MIA PaCa-2 cells mixed at a 1:1 dilution with BD Matrigel (BD Biosciences) in a total volume of 100 μl. Mice were treated with EIPA (7.5 mg/kg) for 15 days when tumors attained an average volume of 50-100 mm^3. As a control, animals treated with vehicle (DMSO in PBS) were used. Volumes (1/2×(width^2×length)) of s.c. tumors were calculated on the basis of measurements using digital calipers after 15 days of treatment. […] Tumor volumes were calculated as above.
In some embodiments, to evaluate the effects of MP on tumor growth or survival in the autochthonous model, Kras^G12D;Ikkα^ΔPEC mice, at 4 weeks of age, were treated with vehicle or 10 mg/kg EIPA (Sigma) by i.p. injection every other day for 1 month. […] Volumes (1/2×(width^2×length)) of s.c. tumors were calculated on the basis of measurements using digital calipers after 15 days of treatment. […] Tumor volumes were calculated as above.

MIA PaCa-2 cells = assay: LC3 puncta / LC3-LAMP1 immunofluorescence; format: cell-based, human; details: MIA PaCa-2 cells +/- MRT68921
Protocol: as §1, §2

Row | Compound | macropinocytosis (TMR-DEX labeling) [1] | tumor growth (KC6141 tumors) | autophagosome (LC3) puncta per cell (MIA PaCa-2 cells)
1 | CCN(c1nc(N)c(C(=O)N=C(N)N)nc1Cl)C(C)C [EIPA, 5-(N-ethyl-N-isopropyl) amiloride] | inhibited; also recorded: suppressed | small effect | 
2 | CN1CCc2cc(Nc3ncc(C4CC4)c(NCCCNC(=O)C4CCC4)n3)ccc2C1 [MRT68921] |  | small effect | less autophagosomes; also recorded: reduced autophagosomes; also recorded: significantly abolished
